From article PMC9028714 (Journal of Personalized Medicine, 2022)

Tests used:
[1] = Multivariable linear regression: phenotypic activity of CYP3A and P-gp vs AUC0–6h or C2h of apixaban and rivaroxaban; settings: for observed variability of AUC0–6h predicted by the model: Table 3; for C2h, β (CI95%): Age 65–74 years / C2h, β (CI95%): Age 75–84 years / C2h, β (CI95%): Age >85 years: reference category <65 years; for C2h, β (CI95%): Gender, Female: reference category Male;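 for all read-outs here: outcome C2h is the drug concentration 2 h post-dose, with regression coefficient errors from a sandwich estimator after a Breusch–Pagan heteroscedasticity check and missing data excluded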
Procedure: Dependent variables (outcomes) for both drugs were defined as being the values of AUC0–6h and concentration 2 h after drug administration (C2h). […] The Breusch–Pagan test was used to detect a potential heteroscedasticity issue, and consistent standard errors of the regression coefficients were assessed with a sandwich estimator. […] In addition, association between dependent variables and predicted activity of CYP3A and P-gp from genotype were also adjusted for a pre-specified set of potential confounding factors (gender, CrCl, BMI, age, dose). Spearman’s correlation was used to assess the concordance between genotype and phenotype of CYP3A and P-gp. Missing data were excluded from the analysis.

CYP3A = tested on: CYP3A; parameters: method as in PMID 32157630; settings: cited from earlier work
[2] = Multivariable linear regression: genotype of CYP3A and P-gp vs AUC0–6h or C2h of apixaban and rivaroxaban; assay type: in vivo, human; settings: for observed variability of AUC0–6h explained by the model: Table 4; for C2h, β (CI95%): Age 65–74 years / C2h, β (CI95%): Age 75–84 years / C2h, β (CI95%): Age >85 years: reference category <65 years; for C2h, β (CI95%): Gender, Female: reference category Male; for C2h, β (CI95%): Genotype ABCB1 1236C>T, Heterozygous for mutation / C2h, β (CI95%): Genotype ABCB1 1236C>T, Homozygous for mutation / C2h, β (CI95%): Genotype ABCB1 2677G>T, Heterozygous for mutation / C2h, β (CI95%): Genotype ABCB1 2677G>T, Homozygous for mutation / C2h, β (CI95%): Genotype ABCB1 3435C>T, Heterozygous for mutation / C2h, β (CI95%): Genotype ABCB1 3435C>T, Homozygous for mutation: reference category No mutation
Procedure: Genotyping of selected CYP3A4/5 and ABCB1 polymorphisms was carried out on QuantStudio^TM 12K Flex Real-Time (RT) PCR System with TaqMan® OpenArray^TM genotyping assays and TaqMan® MGB Probe Validated Single Nucleotide Polymorphism (SNP) Genotyping Assays (Applied Biosystems, Thermo Fisher Scientific, Waltham, MA, USA), respectively. These methods were previously described in detail in the literature. […] All SNPs of CYP3A4/5 integrated in the TaqMan® OpenArray^TM PGx Express Panel (Thermo Fisher Scientific, Waltham, MA, USA) were considered and are listed in Supplementary Table S1. Finally, raw genotyping data were processed with the TaqMan® Genotyper software (Thermo Fisher Scientific, Waltham, MA, USA) according to the manufacturer’s protocol.
AlleleTyper™ Software and translational tables (Thermo Fisher Scientific and PharmGKB, Stanford, CA, USA) were used to translate genetic pattern information from genotyping (SNPs) to pharmacogenomic gene-level star (*) nomenclature. Allele and genotype frequencies were determined, and Hardy–Weinberg equilibrium (HWE) was tested. […] The CYP3A activity predicted from the genotype combines the effects of CYP3A4 and CYP3A5 SNPs on enzyme activities, as listed in the PharmVar and PharmGKB databases. Patients were classified into poor metabolizer (PM), intermediate metabolizer (IM), normal metabolizer (NM), and ultra-rapid metabolizer (UM) according to the classification described by Andreu et al..
Missing data were excluded from the analysis.

CYP2J2 and CYP1A2 = tested on: CYP2J2 and CYP1A2; parameters: method as in PMID 32157630; settings: cited from earlier work
[3] = Apixaban and rivaroxaban capillary blood concentrations (DBS, LC-MS/MS) in hospitalized patients; assay type: in vivo, human; settings: concentrations normalized by the dosing regimen
Procedure: Comedications were systematically screened to record patients taking CYP3A4/5 and/or P-gp inhibitors and/or inducers using the Lexicomp drug interaction analysis tool and the Geneva Table of CYP substrates, inhibitors, and inducers. Adequacy of dosage was assessed according to the SmPC criteria (indication, age, CrCl, and weight).
The DBS concentrations were determined using a validated LC-MS/MS method.
After agitation during 10 min, 10 μL of the supernatant was injected into the LC-MS/MS system. Separation was performed with a Kinetex® C18 column (50 × 2.1 mm, 2.6 µm) from Phenomenex (Brechbühler, Schlieren, Switzerland) under gradient conditions. The mobile phase was composed of formic acid 0.1% in water and in acetonitrile. The total run time was 7 min. Detection of analytes was obtained in positive mode using multiple reaction monitoring (MRM). Instrument parameters were as follows: curtain gas = 40 psi, collision gas = high, IonSpray voltage = […], temperature = 550 °C, ion source gas 1 = 60 psi, ion source gas 2 = 60 psi.

[4] = parameters: method as in PMID 33808739, PMID 30223963; settings: cited from earlier work
CYP2J2 = tested on: CYP2J2; parameters: method as in PMID 32157630; settings: cited from earlier work
[5] = phenotype model, Table S3, reference category 2.5 mg bid
[6] = genotype model, Table S4, reference category 2.5 mg bid
[7] = genotype model, Table S4, reference category IM
[8] = phenotype model, Table S3, reference category 10 mg od
[9] = genotype model, Table S4, reference category 10 mg od

| observed variability of AUC0–6h predicted by the model ([1]; phenotype model) [%] | C2h, β (CI95%): ALAT, per unit ([1]; phenotype model, Table S3) | C2h, β (CI95%): CrCl, per unit ([1]; phenotype model, Table S3) | C2h, β (CI95%): Intercept ([1]; phenotype model, Table S3) | C2h, β (CI95%): MRmidazolam, per log10 ([1]; phenotype model, Table S3) | C2h, β (CI95%): Weight, per kg ([1]; phenotype model, Table S3) | C2h, β (CI95%): Age 65–74 years ([1]; phenotype model, Table S3) | C2h, β (CI95%): Age 75–84 years ([1]; phenotype model, Table S3) | C2h, β (CI95%): Age >85 years ([1]; phenotype model, Table S3) | C2h, β (CI95%): Gender, Female ([1]; phenotype model, Table S3) | observed variability of AUC0–6h explained by the model [2] | C2h, β (CI95%): ALAT, per unit ([2]; genotype model, Table S4) | C2h, β (CI95%): CrCl, per unit ([2]; genotype model, Table S4) | C2h, β (CI95%): Intercept ([2]; genotype model, Table S4) | C2h, β (CI95%): Age 65–74 years ([2]; genotype model, Table S4) | C2h, β (CI95%): Age 75–84 years ([2]; genotype model, Table S4) | C2h, β (CI95%): Age >85 years ([2]; genotype model, Table S4) | C2h, β (CI95%): Predicted phenotype from genotype CYP3A, PM [2, 7] | C2h, β (CI95%): Gender, Female ([2]; genotype model, Table S4) | Structure (SMILES) | share of metabolism CYP3A is responsible for (CYP3A) [%] | also measured |
| --- | --- | --- | --- | --- | --- | --- | --- | --- | --- | --- | --- | --- | --- | --- | --- | --- | --- | --- | --- | --- | --- |
| 47 | 0.06 (−0.13 to 0.25) | −0.40 (−0.67 to −0.13) | −0.46 (−51.98 to 51.05) | 6.07 (−8.08 to 20.22) | −0.02 (−0.37 to 0.33) | 8.61 (−10.00 to 27.23) | 13.69 (−5.59 to 32.97) | 17.73 (−3.37 to 38.82) | 4.07 (−5.94 to 14.08) | approximately 40% | 0.07 (−0.17 to 0.32) | −0.48 (−0.75 to −0.21) | 80.68 (42.43 to 118.93) | 5.10 (−15.52 to 25.71) | 9.29 (−10.54 to 29.12) | 14.31 (−10.69 to 39.31) | −18.61 (−36.00 to −1.21) | 5.44 (−5.98 to 16.87) | COc1ccc(-n2nc(C(N)=O)c3c2C(=O)N(c2ccc(N4CCCCC4=O)cc2)CC3)cc1 [Apixaban] | 15 | decrease in CrCl with an effect comparable to P-gp phenoconversion NM to PM ([1]; according to the AUC0–6h model): 37.6 mL/min/1.73 m^2; C2h, β (CI95%): Dose 5 mg bid [1, 5]: 51.97 (41.16 to 62.78); C2h, β (CI95%): Dose 10 mg bid [1, 5]: 116.28 (80.44 to 152.12); C2h, β (CI95%): Dose 5 mg bid [2, 6]: 51.17 (37.82 to 64.51); C2h, β (CI95%): Dose 10 mg bid [2, 6]: 113.17 (81.73 to 145.52); C2h, β (CI95%): Genotype ABCB1 1236C>T, Heterozygous for mutation ([2]; genotype model, Table S4): −1.26 (−23.09 to 20.57); C2h, β (CI95%): Genotype ABCB1 1236C>T, Homozygous for mutation ([2]; genotype model, Table S4): −9.35 (−36.76 to 18.06); C2h, β (CI95%): Genotype ABCB1 2677G>T, Heterozygous for mutation ([2]; genotype model, Table S4): 8.08 (−14.86 to 31.01); C2h, β (CI95%): Genotype ABCB1 2677G>T, Homozygous for mutation ([2]; genotype model, Table S4): 9.94 (−17.81 to 37.69); C2h, β (CI95%): Genotype ABCB1 3435C>T, Heterozygous for mutation ([2]; genotype model, Table S4): −7.52 (−24.64 to 9.60); C2h, β (CI95%): Genotype ABCB1 3435C>T, Homozygous for mutation ([2]; genotype model, Table S4): −2.70 (−18.04 to 12.65); contribution of CYP2J2 and CYP1A2 together to metabolism (CYP2J2 and CYP1A2): 6%; inter-individual CV of blood concentrations ([3]; administered bid): 47.7%; excreted by the kidney [4]: 25–30% |
| 27 | 0.05 (−0.14 to 0.23) | −0.017(−0.49 to 0.34) | −77.74 (−161.1 to 5.63) | −8.35 (−30.17 to 13.47) | 0.23 (−0.18 to 0.63) | 15.15 (−0.06 to 30.37) | 10.55 (−12.65 to 33.75) | 7.97 (−15.72 to 31.67) | 1.91 (−13.03 to 16.84) | ~18% | 0.08 (−0.06 to 0.22) | −0.14 (−0.61 to 0.32) | −10.99 (−88.50 to 66.51) | 24.56 (8.41 to 40.71) | 25.66 (−1.56 to 52.88) | 19.86 (−9.35 to 49.08) | 24.72 (−8.3 to 57.73) | 2.56 (−12.47 to 17.59) | O=C(NC[C@H]1CN(c2ccc(N3CCOCC3=O)cc2)C(=O)O1)c1ccc(Cl)s1 [Rivaroxaban] | 18 | C2h, β (CI95%): Dose 15 mg bid [1, 8]: 41.5 (0.24 to 82.75); C2h, β (CI95%): Dose 15 mg od [1, 8]: 18.95 (−21.77 to 59.66); C2h, β (CI95%): Dose 20 mg od [1, 8]: 39.98 (−4.47 to 84.44); contribution of CYP2J2 to total clearance (CYP2J2): 14%; C2h, β (CI95%): Weight, per kg ([2]; genotype model, Table S4): 0.46 (0.04 to 0.88); C2h, β (CI95%): Dose 15 mg bid [2, 9]: 60.99 (29.95 to 92.04); C2h, β (CI95%): Dose 15 mg od [2, 9]: 29.53 (−2.56 to 61.63); C2h, β (CI95%): Dose 20 mg od [2, 9]: 57.40 (22.52 to 92.28); C2h, β (CI95%): Predicted phenotype from genotype CYP3A, NM [2, 7]: 20.74 (1.20 to 40.28); C2h, β (CI95%): Genotype ABCB1 1236C>T, Heterozygous for mutation ([2]; genotype model, Table S4): −16.43 (−46.63 to 13.77); C2h, β (CI95%): Genotype ABCB1 1236C>T, Homozygous for mutation ([2]; genotype model, Table S4): −1.63 (−39.30 to 36.03); C2h, β (CI95%): Genotype ABCB1 2677G>T, Heterozygous for mutation ([2]; genotype model, Table S4): 23.36 (−8.85 to 55.56); C2h, β (CI95%): Genotype ABCB1 2677G>T, Homozygous for mutation ([2]; genotype model, Table S4): 16.54 (−19.70 to 52.77); C2h, β (CI95%): Genotype ABCB1 3435C>T, Heterozygous for mutation ([2]; genotype model, Table S4): −8.53 (−32.11 to 15.04); C2h, β (CI95%): Genotype ABCB1 3435C>T, Homozygous for mutation ([2]; genotype model, Table S4): −12.17 (−32.48 to 8.14); inter-individual CV of blood concentrations ([3]; administered bid): 41.5%; inter-individual CV of blood concentrations ([3]; administered od): 51.8%; excreted by the kidney [4]: 66% |
